Data reported in the NIST ThermoML archive (doi:10.1021/je050464i).
“And” between values parts separate entries of the source, which are not always exact repeats. Equal entries are not always repeated. Numbers after ± are expanded uncertainties.

Settings: Crystal, Calculated from knudsen effusion weight loss

[Pd] [palladium]
Settings | vapor or sublimation pressure
1473 K | 1e-05 kPa
1498 K | 2e-05 ± 2e-05 kPa
1523 K | 3e-05 ± 2e-05 kPa
1548 K | 6e-05 ± 4e-05 kPa
1573 K | 9e-05 ± 3e-05 kPa
1576 K | 9e-05 ± 0.00016 kPa
1598 K | 0.000141 ± 3e-05 kPa
1600 K | 0.00011 ± 3e-05 kPa
1626 K | 0.0002 ± 0.00014 kPa
1648 K | 0.00028 ± 9e-05 kPa
1650 K | 0.00026 ± 0.00019 kPa
1660 K | 0.0005 ± 0.0002 kPa
1673 K | 0.0004 ± 0.00019 kPa and 0.0004 ± 0.0002 kPa and 0.0004 ± 8e-05 kPa
1676 K | 0.00044 ± 0.00018 kPa
1685 K | 0.00067 ± 0.00019 kPa
1698 K | 0.0005 ± 0.0006 kPa and 0.00076 ± 0.00012 kPa and 0.00058 ± 5e-05 kPa
1700 K | 0.00061 ± 0.00014 kPa
1706 K | 0.0009 ± 0.0002 kPa
1723 K | 0.00108 ± 0.0002 kPa [middle of 4 runs]
1726 K | 0.00094 ± 0.00018 kPa
1740 K | 0.0012 ± 0.0003 kPa
1748 K | 0.0016 ± 0.0005 kPa and 0.0016 ± 0.0003 kPa and 0.0012 ± 0.00026 kPa
1750 K | 0.00131 ± 0.0003 kPa
1773 K | 0.002 ± 0.0005 kPa and 0.0022 ± 0.0005 kPa
1776 K | 0.002 ± 0.0003 kPa
1798 K | 0.0024 ± 0.0009 kPa and 0.0029 ± 0.0006 kPa
1800 K | 0.0027 ± 0.0005 kPa
1802 K | 0.0024 ± 0.0009 kPa
1806 K | 0.002 ± 0.002 kPa
1823 K | 0.004 ± 0.0011 kPa
1825 K | 0.0037 ± 0.0009 kPa
1840 K | 0.0047 ± 0.0011 kPa
1848 K | 0.0048 ± 0.0011 kPa
1850 K | 0.0053 ± 0.0011 kPa
1860 K | 0.0061 ± 0.0017 kPa
1873 K | 0.008 ± 0.008 kPa and 0.0076 ± 0.0017 kPa
1883 K | 0.0066 ± 0.0018 kPa
1885 K | 0.0082 ± 0.0017 kPa
1898 K | 0.01 ± 0.014 kPa and 0.0094 ± 0.002 kPa
1900 K | 0.0098 ± 0.0016 kPa
1910 K | 0.0109 ± 0.0023 kPa
1912 K | 0.0111 ± 0.002 kPa
1923 K | 0.013 ± 0.006 kPa and 0.014 ± 0.003 kPa
1925 K | 0.0125 ± 0.0021 kPa
1940 K | 0.015 ± 0.004 kPa
1942 K | 0.0157 ± 0.0035 kPa
1948 K | 0.018 ± 0.01 kPa and 0.017 ± 0.003 kPa and 0.021 ± 0.005 kPa
1950 K | 0.0174 ± 0.0031 kPa and 0.0166 ± 0.003 kPa
1954 K | 0.021 ± 0.005 kPa
1963 K | 0.02 ± 0.004 kPa and 0.0201 ± 0.0034 kPa
1965 K | 0.0203 ± 0.0028 kPa and 0.0204 ± 0.0028 kPa
1970 K | 0.024 ± 0.018 kPa
1972 K | 0.022 ± 0.005 kPa
1973 K | 0.022 ± 0.005 kPa and 0.024 ± 0.007 kPa and 0.02 ± 0.003 kPa
